Where a name gives a salt, the structure may show the parent alone. Read-outs that look alike come from different tables or passages of the source.
System: LMP1 expression in Kem I cells
Experiment: microbe, parasite or virus in culture
Assay type: cell-based, EBV
Conditions: for fold induction at 2.5 µM: human gammaherpesvirus 4, 48 h
[1] = Kem I cells, 2.5 uM, 48 hours, average of replicates 1 and 2
[2] = Kem I cells, 2.5 uM, 48 hours, fold change in LMP1 transcript vs vehicle
[3] = read-out: Average LMP1 Fold Increase, Kem I cells, 2.5 uM, 48 hours, average of replicates 1 and 2
[4] = read-out: Replicate 1-LMP1 Fold Increase, Kem I cells, 2.5 uM, 48 hours, fold change in LMP1 transcript vs vehicle
[5] = read-out: Replicate 2-LMP1 Fold Increase, Kem I cells, 2.5 uM, 48 hours, fold change in LMP1 transcript vs vehicle

| SMILES | Average LMP1 Fold Increase [1] | Replicate 1-LMP1 Fold Increase [2] | Replicate 2-LMP1 Fold Increase [2] | also measured |
| --- | --- | --- | --- | --- |
| CC(C)N(CC[C@H](c1ccccc1)c1cc(CO)ccc1O)C(C)C | 0.36 | 0.49 | 0.23 |  |
| O=[N+]([O-])C=Cc1ccc2c(c1)OCO2 | 1.11 | 0.54 | 1.68 |  |
| O=C(O)C(Cc1ccccc1[N+](=O)[O-])=NNc1nc(-c2ccc(Cl)c(Cl)c2)cs1 (mixture of isomers) [4EGI-1] | 0.64 | 0.41 | 0.86 |  |
| Fc1cc(F)c2c(c1)[C@H]1C=CC[C@H]1C(c1cccnc1)N2 (mixture of isomers) [Golgicide A] | 0.27 | 0.34 | 0.19 |  |
| C[C@H]1COC2(CCN(c3nc(=O)c4cc(C(F)(F)F)cc([N+](=O)[O-])c4s3)CC2)O1 (racemic) [BTZ043 Racemate] | 0.64 | 0.62 | 0.67 |  |
| Cl.N[C@@H]1C[C@H]1c1ccccc1 (racemic) [Tranylcypromine (2-PCPA) HCl] |  |  |  | Average LMP1 Fold Increase: 0.33 fold; Replicate 1-LMP1 Fold Increase: 0.22 fold; Replicate 2-LMP1 Fold Increase: 0.45 fold |
| COc1cc2c(cc1O)CC[C@@H]1[C@@H]2CC[C@]2(C)[C@@H](O)CC[C@@H]12 [2-Methoxyestradiol (2-MeOE2)] | 1.00 | 0.65 | 1.34 |  |
| O=C(O)c1ccc(N2C(=O)/C(=C\c3ccc(-c4ccc([N+](=O)[O-])cc4)o3)C=C2c2ccccc2)cc1 [4E1RCat] | 0.71 | 0.30 | 1.12 |  |
| C=CCNC1=C2C[C@@H](C)C[C@H](OC)[C@H](O)[C@@H](C)/C=C(\C)[C@H](OC(N)=O)[C@@H](OC)/C=C\C=C(/C)C(=O)NC(=CC1=O)C2=O [17-AAG (Tanespimycin)] | 0.45 | 0.36 | 0.55 |  |
| CN1CCc2cc3c(cc2[C@H]1[C@@H]1OC(=O)c2c1ccc1c2OCO1)OCO3 [(+)-Bicuculline] | 0.89 | 0.86 | 0.93 |  |
| C[C@H](Oc1cc(-c2cnn(C3CCNCC3)c2)cnc1N)c1c(Cl)ccc(F)c1Cl [(S)-crizotinib] | 0.70 | 0.57 | 0.84 |  |
| C=C1C(=O)O[C@H]2[C@H]1CC/C(C)=C/CC[C@@]1(C)O[C@@H]21 [(−)-Parthenolide] | 0.57 | 0.26 | 0.87 |  |
| N#Cc1c(O)c2c(-c3ccc(-c4ccccc4O)cc3)csc2[nH]c1=O [A-769662] | 0.40 | 0.41 | 0.39 |  |
| CC1(C)CCC(CN2CCN(c3ccc(C(=O)NS(=O)(=O)c4ccc(NCC5CCOCC5)c([N+](=O)[O-])c4)c(Oc4cnc5[nH]ccc5c4)c3)CC2)=C(c2ccc(Cl)cc2)C1 [ABT-199 (GDC-0199)] | 0.75 | 0.51 | 0.98 |  |
| CC1(C)CCC(c2ccc(Cl)cc2)=C(CN2CCN(c3ccc(C(=O)NS(=O)(=O)c4ccc(N[C@H](CCN5CCOCC5)CSc5ccccc5)c(S(=O)(=O)C(F)(F)F)c4)cc3)CC2)C1 [ABT-263 (Navitoclax)] | 0.27 | 0.21 | 0.33 |  |
| CCN(CC)C(=O)c1ccc(C2=CC3(CCNCC3)Oc3cccc(O)c32)cc1 [ADL5859 HCl] |  |  |  | fold induction at 2.5 µM [3]: 1.02; fold induction at 2.5 µM [4]: 0.54; fold induction at 2.5 µM [5]: 1.5 |
| O=C(c1ccc(F)cc1)N1CCC[C@H](c2nc(-c3ccc(F)cc3)no2)C1 [ADX-47273] | 0.58 | 0.81 | 0.35 |  |
| CN(C)Cc1ccc(-c2nc3cccc4c3n2CCNC4=O)cc1 [AG-14361] | 0.30 | 0.39 | 0.22 |  |
| Cc1ccccc1C(C(=O)NC1CCCCC1)N(C(=O)Cn1ccnc1C)c1cccc(F)c1 (stereo not drawn) [AGI-5198] |  |  |  | fold induction at 2.5 µM [3]: 0.82; fold induction at 2.5 µM [4]: 0.71; fold induction at 2.5 µM [5]: 0.93 |
| O=C(Nc1cccc(C(F)(F)F)c1)Nc1cc(S(=O)(=O)NC2CC2)ccc1-c1ccsc1 [AGI-6780] |  |  |  | fold induction at 2.5 µM [3]: 1.51; fold induction at 2.5 µM [4]: 0.42; fold induction at 2.5 µM [5]: 2.6 |
| CN1CCCCC1Cn1cc(C(=O)c2cc([N+](=O)[O-])ccc2I)c2ccccc21 (stereo not drawn) [AM1241] | 0.79 | 1.01 | 0.56 |  |
| CC(=O)Nc1nc2c(Oc3cc(-c4ccc(C(F)(F)F)cc4)ncn3)cccc2s1 [AMG-517] |  |  |  | fold induction at 2.5 µM [3]: 0.52; fold induction at 2.5 µM [4]: 0.56; fold induction at 2.5 µM [5]: 0.48 |
| COc1cc(N2CCC(N3CCN(C)CC3)CC2)ccc1Nc1ncc(Cl)c(Nc2ccccc2P(C)(C)=O)n1 [AP26113] |  |  |  | fold induction at 2.5 µM [3]: 0.92; fold induction at 2.5 µM [4]: 1.07; fold induction at 2.5 µM [5]: 0.77 |

| SMILES | Average LMP1 Fold Increase [1] | Replicate 1-LMP1 Fold Increase [2] | Replicate 2-LMP1 Fold Increase [2] | also measured |
| --- | --- | --- | --- | --- |
| O=C1NC(=O)/C(=C/c2ccc(-c3ccc(F)cc3O)o2)S1 [AS-252424] | 0.53 | 0.57 | 0.49 |  |
| Cc1cc2c(C(C)C)c(O)c(O)c(C=O)c2c(O)c1-c1c(C)cc2c(C(C)C)c(O)c(O)c(C=O)c2c1O [AT101] |  |  |  | fold induction at 2.5 µM [3]: 1.04; fold induction at 2.5 µM [4]: 0.51; fold induction at 2.5 µM [5]: 1.58 |
| CCNC(=O)c1noc(-c2cc(C(C)C)c(O)cc2O)c1-c1ccc(CN2CCOCC2)cc1 [AUY922 (NVP-AUY922)] | 1.29 | 1.62 | 0.96 |  |
| C=CC(=O)Nc1cccc(Nc2nc(Nc3ccc(OCCOC)cc3)ncc2F)c1 [AVL-292] | 0.52 | 0.48 | 0.56 |  |
| C[C@@H]1COCCN1c1cc(C2(S(C)(=O)=O)CC2)nc(-c2cccc3[nH]ccc23)n1 [AZ20] | 1.39 | 1.56 | 1.22 |  |
| COc1cc(N2CCN(C)CC2)ccc1Nc1nccc(-c2cn(C)c3cnccc23)n1 [AZ191] | 0.37 | 0.50 | 0.24 |  |
| COc1cc(OC2CCN(C)CC2)ccc1Nc1ncc2c(n1)n(C1CCCC1)c(=O)n2C [AZ 3146] | 0.61 | 0.66 | 0.57 |  |
| CC(=O)Nc1cccc2c1c(Sc1ccc(Cl)cc1)c(C)n2CC(=O)O [AZD1981] | 0.80 | 1.13 | 0.46 |  |
| COC1CCN(C(=O)c2cc(Cc3n[nH]c(=O)c4ccccc34)ccc2F)CC1 [AZD2461] | 1.00 | 0.50 | 1.51 |  |
| COc1cc(N2CCC(N)CC2)ccc1Nc1ncc(Cl)c(-c2c[nH]c3ccccc23)n1 [AZD3463] | 0.26 | 0.28 | 0.24 |  |
| COc1cc(CCc2cc(NC(=O)c3ccc(N4CC(C)NC(C)C4)cc3)n[nH]2)cc(OC)c1 (stereo not drawn) [AZD4547] | 0.13 | 0.11 | 0.15 |  |
| Cc1cc([C@@H](C)Nc2ccccc2C(=O)O)c2nc(N3CCOCC3)cc(=O)n2c1 [AZD6482] | 0.22 | 0.06 | 0.37 |  |
| CN(C)C(=O)c1ccc(S(=O)(=O)c2ccc(NC(=O)[C@@](C)(O)C(F)(F)F)c(Cl)c2)cc1 [AZD7545] | 0.67 | 0.40 | 0.94 |  |
| NC(=O)Nc1cc(-c2cccc(F)c2)sc1C(=O)N[C@H]1CCCNC1 [AZD7762] | 5.84 | 9.74 | 1.94 |  |
| CN(Cc1cnc2nc(N)nc(N)c2n1)c1ccc(C(=O)N[C@@H](CCC(=O)O)C(=O)O)cc1 [Abitrexate (Methotrexate)] | 3.17 | 3.70 | 2.64 |  |
| NC(=O)c1ncn([C@@H]2O[C@H](CO)[C@@H](O)[C@H]2O)c1N [Acadesine] |  |  |  | fold induction at 2.5 µM [3]: 0.58; fold induction at 2.5 µM [4]: 0.57; fold induction at 2.5 µM [5]: 0.59 |
| COc1ccc2cccc(CCNC(C)=O)c2c1 [Agomelatine] |  |  |  | fold induction at 2.5 µM [3]: 0.43; fold induction at 2.5 µM [4]: 0.34; fold induction at 2.5 µM [5]: 0.52 |
| Oc1ncnc2[nH]ncc12 [Allopurinol] |  |  |  | fold induction at 2.5 µM [3]: 0.11; fold induction at 2.5 µM [4]: 0.09; fold induction at 2.5 µM [5]: 0.13 |
| CCOC(=O)[C@H]1O[C@@H]1C(=O)N[C@@H](CC(C)C)C(=O)NCCC(C)C [Aloxistatin] |  |  |  | fold induction at 2.5 µM [3]: 0.11; fold induction at 2.5 µM [4]: 0.1; fold induction at 2.5 µM [5]: 0.12 |
| CCOC(=O)C1=C(COCCN)NC(C)=C(C(=O)OC)C1c1ccccc1Cl (stereo not drawn) [Amlodipine] |  |  |  | fold induction at 2.5 µM [3]: 2.06; fold induction at 2.5 µM [4]: 0.51; fold induction at 2.5 µM [5]: 3.61 |
| COc1cc(F)c(C(C)C)cc1-c1ccc(C(F)(F)F)cc1CN1C(=O)O[C@H](c2cc(C(F)(F)F)cc(C(F)(F)F)c2)[C@@H]1C [Anacetrapib (MK-0859)] | 0.63 | 0.80 | 0.46 |  |
| CC(C)(C#N)c1cc(Cn2cncn2)cc(C(C)(C)C#N)c1 [Anastrozole] |  |  |  | fold induction at 2.5 µM [3]: 0.94; fold induction at 2.5 µM [4]: 0.45; fold induction at 2.5 µM [5]: 1.42 |

Source: patent publication US20230053688A1, “METHODS TO ALTER LATENCY IN EBV+ MALIGNANCIES” (Cornell University, priority 2020, published 2023)
